Here are results for twelve molecules from PMC1851987, “Identification of the Endogenous Key Substrates of the Human Organic Cation Transporter OCT2 and Their Implication in Function of Dopaminergic Neurons” (PLoS ONE, 2007).

Data set [1] concerns HTZ-146 cells. Description: MTT reduction cell viability assay, HTZ-146 cells. The format is cell-based, human. Here is the method: (§1) Cell viability was assessed in HEK-293 cells, human dopaminergic neuroblastoma cells (SH-SY5Y) and human glioblastoma cells (HTZ-146) by the MTT test as described.[22] […] For indication of metabolic activity, cells were treated with MTT reagent (15 µl of 1 mg/ml stock solution per well) for 1 h, and after drying of culture plates for 1 h at 37°C, the resulting formazan dye was extracted with isopropanol/HCl (100 µl 0.04 mol/l per well) and absorbance was determined spectrophotometrically at 568 nm. Results were in agreement with the data obtained by the tryptan blue exclusion method (data not shown).

In data set [2] the test system is SH-SY5Y cells. Kind of data set: MTT reduction cell viability assay, SH-SY5Y cells. It is filed as cell-based, human. The method, then: as §1
For orientation: Formazan colour is commonly taken as a measure of viable cells.

Data set [3] relates to HTZ-146 cells. Description: Uptake of cyclo(his-pro) and salsolinol into HTZ-146 cells with transport inhibitors. The format is cell-based, human. Conditions: substrates 10 µmol/l, 5 min; inhibitors 10 µmol/l (decynium-22 1 µmol/l). The method, then: (§2) (D) Relative quantitative real-time expression of OCT2 mRNA in distinct areas of normal human brain and neuroepithelial tumors (TaqMan Assay) normalized to GAPDH.
(§3) For uptake experiments, cells were grown on polystyrene dishes of 60 mm diameter to at least 80% confluence. Prior to addition of test compounds, culture medium was replaced by 3 ml HEPES-modified Krebs buffer (140.0 mmol/l NaCl, 5.0 mmol/l KCl, 2.0 mmol/l CaCl2, 1.0 mmol/l MgCl2, 10.0 mmol/l HEPES, and 5.0 mmol/l D-glucose, adjusted to pH 7.40), and cells were left to equilibrate for 60 min at 37°C. Uptake was terminated after indicated times by washing cells with ice-cold buffer. Cells were lysed with 1 ml of 4 mmol/l perchloric acid and lysates subjected to LC-MS-MS quantification. Cellular protein content was determined after solubilization of perchloric acid precipitates with 1 ml of […] NaOH using the bicinchoninic assay (BCA Protein Assay Kit, Pierce).
(§4) Chromatographic separations were performed on Hypercarb (5 µm, 50×2.1 mm; Thermo Electron), Aquasil C18 (3 µm, 100×4.6 mm; Thermo Electron), or Hilic columns (5 µm, 100×3.0 mm; Waters Atlantis) by isocratic or gradient elution using 0.1% aqueous formic acid (A) and acetonitrile or methanol (B) as solvent system. For quantification, SRM transitions of a precursor ion [M+H]^+ into a specific fragment ion (peak area ratios relative to IS) were recorded in positive ESI mode at 1.0–1.5 mTorr collision pressure and 10–40 eV collision energy. External calibration curves were obtained from serial dilutions of the analyte in 4 mmol/l HClO4 by linear or logistic regression. Detection limit was at least 0.001 nmol/mg protein.

In data set [4] the test system is SH-SY5Y cells. Kind of data set: Uptake of cyclo(his-pro) and salsolinol into SH-SY5Y cells with transport inhibitors. Conditions: substrates 10 µmol/l, 5 min; inhibitors 10 µmol/l (decynium-22 1 µmol/l). The format is cell-based, human. The method, then: as §2, §3, §4
The target in data set [5] is T1, norepinephrine transporter (NET) (Homo sapiens, UniProt P23975).
T1 construct: expressed in transfected cells; host or cells: HEK-293, stably transfected; cDNA from C; Pifl (University of Vienna)
Description: Specific uptake into norepinephrine transporter (NET) transfected HEK-293 cells. It is filed as cell-based. Conditions: 10 µmol/l, 5 min incubation. From the text:
Pifl (University of Vienna).
1. Burnette WB, Bailey MD, Kukoyi S, Blakely RD, Trowbridge CG, et al. (1996) Human norepinephrine transporter kinetics using rotating disk electrode voltammetry. Anal Chem 68: 2932–2938. (0.90 MB TIF) Click here for additional data file.

Substrate in data set [6]: O=C1NC(Cc2c[nH]cn2)C(=O)N2CCCC12
Kind of data set: cells, lysate or membranes. Conditions: mean (s.e.m.), pH 7.4, 37.0 °C.

The mark [7] stands for this setting: 48 h, non-pretreated, read-out: EC50 (95% confidence interval), cell viability.
Where [8] appears, read: other: specific uptake, 1 min of loading, n = 3.

Marks after values point to notes of the source that are not given here.

By EC50 is commonly meant the concentration needed to bring the measured effect to its halfway point. A word on the Vmax: it is the rate approached at saturating substrate.

T1 sequence (P23975 whole entry): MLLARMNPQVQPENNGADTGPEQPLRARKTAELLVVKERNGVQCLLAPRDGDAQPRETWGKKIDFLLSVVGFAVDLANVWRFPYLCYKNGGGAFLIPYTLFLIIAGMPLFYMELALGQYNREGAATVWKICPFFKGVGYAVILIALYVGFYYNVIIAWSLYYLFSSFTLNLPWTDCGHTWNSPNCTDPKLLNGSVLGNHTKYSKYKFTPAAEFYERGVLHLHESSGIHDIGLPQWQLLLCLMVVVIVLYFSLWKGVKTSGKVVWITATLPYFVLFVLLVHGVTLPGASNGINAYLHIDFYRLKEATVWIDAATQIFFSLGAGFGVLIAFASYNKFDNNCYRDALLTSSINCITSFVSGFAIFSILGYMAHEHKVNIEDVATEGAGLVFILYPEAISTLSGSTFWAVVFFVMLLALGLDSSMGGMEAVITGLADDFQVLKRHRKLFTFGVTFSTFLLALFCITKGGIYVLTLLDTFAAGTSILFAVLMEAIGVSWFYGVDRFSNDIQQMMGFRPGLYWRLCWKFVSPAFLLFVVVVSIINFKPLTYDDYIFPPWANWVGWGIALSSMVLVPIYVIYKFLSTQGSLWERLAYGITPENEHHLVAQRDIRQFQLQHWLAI

With `C[C@]12N[C@H](Cc3ccccc31)c1ccccc12` [(+)-MK-801, reference compound], the “effect on cell death caused by glutamate as well as salsolinol” value in data set [1] ((+)-MK-801 10 µmol/l present) and in data set [2] ((+)-MK-801 10 µmol/l present) was “attenuated” throughout.

As for `Fc1ccc(C(OCCN2CCN(CCCc3ccccc3)CC2)c2ccc(F)cc2)cc1` [GBR12909], the “effect of coincubated inhibitor on uptake of cyclo(his-pro) and salsolinol” value (shortened to “effect of coincubated inhibitor”) in data set [3] and in data set [4] was “not different from control conditions” throughout.

Turning to `CCN1/C(=C/c2ccc3ccccc3[n+]2CC)C=Cc2ccccc21.[I-]` [decynium-22], the “effect of coincubated inhibitor” value in data set [3] and in data set [4] was “almost abolished” in each case.

Turning to `CNCCCN1c2ccccc2CCc2ccccc21` [desipramine], the “effect of coincubated inhibitor” value in data set [3] and in data set [4] was “not different from control conditions” each time.

Consider `N[C@@H](CCC(=O)O)C(=O)O` [glutamate, reference compound], for which the EC50 in data set [1] (setting [7]) was found to be 585 µM; in data set [2] (setting [7]), 389 µM.

Turning to `CC(COc1ccccc1)N(CCCl)Cc1ccccc1` (stereo not drawn) [phenoxybenzamine], the “effect of coincubated inhibitor” value in data set [3] and in data set [4] was “almost abolished” in each case.

For the molecule `NCCc1ccc(O)cc1` [tyramine, reference compound], the “substrate of NET (specific uptake)” value in data set [5] was “excellent NET substrate”.

B1: organic cation transporter OCT2 (wild-type 400R) (Homo sapiens; S270A) (protein)
chain: MPTTVDDVLEHGGEFHFFQKQMFFLLALLSATFAPIYVGIVFLGFTPDHRCRSPGVAELSLRCGWSPAEELNYTVPGPGPAGEASPRQCRRYEVDWNQSTFDCVDPLASLDTNRSRLPLGPCRDGWVYETPGSSIVTEFNLVCANSWMLDLFQSSVNVGFFIGSMSIGYIADRFGRKLCLLTTVLINAAAGVLMAISPTYTWMLIFRLIQGLVSKAGWLIGYILITEFVGRRYRRTVGIFYQVAYTVGLLVLAGVAYALPHWRWLQFTVALPNFFFLLYYWCIPESPRWLISQNKNAEAMRIIKHIAKKNGKSLPASLQRLRLEEETGKKLNPSFLDLVRTPQIRKHTMILMYNWFTSSVLYQGLIMHMGLAGDNIYLDFFYSALVEFPAAFMIILTIDRIGRRYPWAASNMVAGAACLASVFIPGDLQWLKIIISCLGRMGITMAYEIVCLVNAELYPTFIRNLGVHICSSMCDIGGIITPFLVYRLTNIWLELPLMVFGVLGLVAGGLVLLLPETKGKALPETIEEAENMQRPRKNKEKMIYLQVQKLDIPLN
With B1, in data set [6] (setting [8]), the Km is reported as 74 (12) µmol/l, the Vmax was 0.003 µmol/min/mg and the Vmax/Km was determined as 41 µl/mg protein/min.

B2: OCT2 variant K432Q (Homo sapiens; K432Q/S270A) (protein)
chain: MPTTVDDVLEHGGEFHFFQKQMFFLLALLSATFAPIYVGIVFLGFTPDHRCRSPGVAELSLRCGWSPAEELNYTVPGPGPAGEASPRQCRRYEVDWNQSTFDCVDPLASLDTNRSRLPLGPCRDGWVYETPGSSIVTEFNLVCANSWMLDLFQSSVNVGFFIGSMSIGYIADRFGRKLCLLTTVLINAAAGVLMAISPTYTWMLIFRLIQGLVSKAGWLIGYILITEFVGRRYRRTVGIFYQVAYTVGLLVLAGVAYALPHWRWLQFTVALPNFFFLLYYWCIPESPRWLISQNKNAEAMRIIKHIAKKNGKSLPASLQRLRLEEETGKKLNPSFLDLVRTPQIRKHTMILMYNWFTSSVLYQGLIMHMGLAGDNIYLDFFYSALVEFPAAFMIILTIDRIGRRYPWAASNMVAGAACLASVFIPGDLQWLQIIISCLGRMGITMAYEIVCLVNAELYPTFIRNLGVHICSSMCDIGGIITPFLVYRLTNIWLELPLMVFGVLGLVAGGLVLLLPETKGKALPETIEEAENMQRPRKNKEKMIYLQVQKLDIPLN
Take B2: in data set [6] (other: 1 min of loading), the Km is listed as 78 (12) µmol/l and the Vmax is 0.0031 µmol/min/mg.

B3: OCT2 variant A270S (Homo sapiens) (protein)
chain: MPTTVDDVLEHGGEFHFFQKQMFFLLALLSATFAPIYVGIVFLGFTPDHRCRSPGVAELSLRCGWSPAEELNYTVPGPGPAGEASPRQCRRYEVDWNQSTFDCVDPLASLDTNRSRLPLGPCRDGWVYETPGSSIVTEFNLVCANSWMLDLFQSSVNVGFFIGSMSIGYIADRFGRKLCLLTTVLINAAAGVLMAISPTYTWMLIFRLIQGLVSKAGWLIGYILITEFVGRRYRRTVGIFYQVAYTVGLLVLAGVAYALPHWRWLQFTVSLPNFFFLLYYWCIPESPRWLISQNKNAEAMRIIKHIAKKNGKSLPASLQRLRLEEETGKKLNPSFLDLVRTPQIRKHTMILMYNWFTSSVLYQGLIMHMGLAGDNIYLDFFYSALVEFPAAFMIILTIDRIGRRYPWAASNMVAGAACLASVFIPGDLQWLKIIISCLGRMGITMAYEIVCLVNAELYPTFIRNLGVHICSSMCDIGGIITPFLVYRLTNIWLELPLMVFGVLGLVAGGLVLLLPETKGKALPETIEEAENMQRPRKNKEKMIYLQVQKLDIPLN
For B3, in data set [6] (other: 1 min of loading), the Km is 75 (11) µmol/l and the maximal velocity (Vmax) came to 0.0032 µmol/min/mg.

B4: OCT2 variant M165I (Homo sapiens; M165I/S270A) (protein)
chain: MPTTVDDVLEHGGEFHFFQKQMFFLLALLSATFAPIYVGIVFLGFTPDHRCRSPGVAELSLRCGWSPAEELNYTVPGPGPAGEASPRQCRRYEVDWNQSTFDCVDPLASLDTNRSRLPLGPCRDGWVYETPGSSIVTEFNLVCANSWMLDLFQSSVNVGFFIGSISIGYIADRFGRKLCLLTTVLINAAAGVLMAISPTYTWMLIFRLIQGLVSKAGWLIGYILITEFVGRRYRRTVGIFYQVAYTVGLLVLAGVAYALPHWRWLQFTVALPNFFFLLYYWCIPESPRWLISQNKNAEAMRIIKHIAKKNGKSLPASLQRLRLEEETGKKLNPSFLDLVRTPQIRKHTMILMYNWFTSSVLYQGLIMHMGLAGDNIYLDFFYSALVEFPAAFMIILTIDRIGRRYPWAASNMVAGAACLASVFIPGDLQWLKIIISCLGRMGITMAYEIVCLVNAELYPTFIRNLGVHICSSMCDIGGIITPFLVYRLTNIWLELPLMVFGVLGLVAGGLVLLLPETKGKALPETIEEAENMQRPRKNKEKMIYLQVQKLDIPLN
B4: in data set [6] (other: 1 min of loading), the Km is 78 (15) µmol/l and the Vmax was 0.0029 µmol/min/mg.

B5: OCT2 variant R400C (Homo sapiens; R400C/S270A) (protein)
chain: MPTTVDDVLEHGGEFHFFQKQMFFLLALLSATFAPIYVGIVFLGFTPDHRCRSPGVAELSLRCGWSPAEELNYTVPGPGPAGEASPRQCRRYEVDWNQSTFDCVDPLASLDTNRSRLPLGPCRDGWVYETPGSSIVTEFNLVCANSWMLDLFQSSVNVGFFIGSMSIGYIADRFGRKLCLLTTVLINAAAGVLMAISPTYTWMLIFRLIQGLVSKAGWLIGYILITEFVGRRYRRTVGIFYQVAYTVGLLVLAGVAYALPHWRWLQFTVALPNFFFLLYYWCIPESPRWLISQNKNAEAMRIIKHIAKKNGKSLPASLQRLRLEEETGKKLNPSFLDLVRTPQIRKHTMILMYNWFTSSVLYQGLIMHMGLAGDNIYLDFFYSALVEFPAAFMIILTIDCIGRRYPWAASNMVAGAACLASVFIPGDLQWLKIIISCLGRMGITMAYEIVCLVNAELYPTFIRNLGVHICSSMCDIGGIITPFLVYRLTNIWLELPLMVFGVLGLVAGGLVLLLPETKGKALPETIEEAENMQRPRKNKEKMIYLQVQKLDIPLN
As to B5, in data set [6] (other: 1 min of loading), the Km was 51 (6)^# µmol/l and the Vmax turned out to be 0.001 µmol/min/mg.
